The record followed here is paper PMC10120463 (Journal of Enzyme Inhibition and Medicinal Chemistry, 2023).

This data set can be described thus: Haemolysis assay. It counts as cell-based. Conditions: rabbit, rabbit red blood cell suspension.

In turn, `C[C@@H]1[C@H](O)[C@@H](C)/C=C/C=C/C=C/C=C/C=C/C=C/C=C/[C@H](O[C@@H]2O[C@H](C)[C@@H](O)[C@H](N)[C@@H]2O)C[C@@H]2O[C@](O)(C[C@@H](O)C[C@@H](O)[C@H](O)CC[C@@H](O)C[C@@H](O)CC(=O)O[C@H]1C)C[C@H](O)[C@H]2C(=O)O` [AmB, amphotericin B] yielded a hemolysis at 1 h, 32 µg/mL of 53.5%.
